According to patent US11419862B2, “Quinoline derivative for treatment of nasopharyngeal carcinoma” (CHIA TAI TIANQING PHARMACEUTICAL GROUP CO., LTD., priority 2018, dated 2022):
Where a name gives a salt, the structure may show the parent alone.

Tested on: nasopharyngeal carcinoma
Experiment: Efficacy on nasopharyngeal carcinoma: patient case reports treated orally with capsules of the compound of Example 1
Assay type: in vivo, human
Design: key to evaluation according to RECIST 1.1: CR: complete remission, which means that target lesions of tumors have disappeared and no new lesions appear which is maintained for at least 4 weeks; PR: partial remission, which means 30% or more decrease in the sum of the diameters of target lesions of tumors than the baseline level, which is maintained for at least 4 weeks; PD: the progression of disease, which means 20% or more increase in the diameters of target lesions of tumors than the baseline level; SD: stable disease, which means the sum of diameters of all target leisions neither shrink to qualify for PR nor sufficient increase to qulify for PD
Procedure: During or after radiotherapy, the patients are treated with the capsules of the compound of Example 1 at 12 mg qd. The administration is continuously performed for 2 weeks and rest for 1 week, followed by continuously administrating for 2 weeks and resting for 1 week as a cycle. The target lesions are regularly evaluated, and the treatment regimen is terminated according to the evaluation results.
Subsequently, the patient took orally the capsules of 12 mg of the compound of Example 1 once per day for treatment (continuously administrating for 2 weeks and resting for 1 week as a treatment cycle). […] After 4 cycles of treatment, evaluated as PR according to RECIST 1.1, and the sum of the target lesions was 10 mm, which was reduced by 9 mm from the baseline. After 8 cycles of treatment, the sum of the target lesions was 9 mm, which was reduced by 10 mm from the baseline.
From Mar. 2, 2017, the patient started to take orally the capsules of 12 mg of the compound of Example 1 once per day for treatment (continuously administrating for 2 weeks and resting for 1 week as a treatment cycle). On Apr. […] The treatment with the capsules of the compound of Example 1 was continued.
Three months later, the patient started to take orally the capsules of 12 mg of the compound of Example 1 once per day for treatment (continuously administrating for 2 weeks and resting for 1 week as a treatment cycle). […] The treatment with the capsules of the compound of Example 1 was continued.

[1] = Example 4, patient, 12 mg once per day orally, after 2 cycles
[2] = Example 4, patient, 12 mg once per day orally, after 4 cycles
[3] = Example 4, patient, 12 mg once per day orally, after 8 cycles
[4] = Example 5, patient, 12 mg once per day orally, after 2 cycles
[5] = Example 5, patient, 12 mg once per day orally, after 4 cycles
[6] = Example 5, patient, 12 mg once per day orally, after 6 cycles
[7] = Example 5, patient, 12 mg once per day orally, after 12 cycles
[8] = Example 5, patient, 12 mg once per day orally, after 16 cycles
[9] = Example 6, patient, 12 mg once per day orally, after 2 cycles
[10] = Example 6, patient, 12 mg once per day orally, after 4 cycles

`COc1cc2c(Oc3ccc4[nH]c(C)cc4c3F)ccnc2cc1OCC1(N)CC1` [Example 1, 1-[[[4-fluoro-2-methyl-1H-indol-5-yl)oxy-6-methoxyquinolin-7-yl]oxy]methyl]cyclopropylamine dihydrochloride] was tested, and the “evaluation according to RECIST 1.1” value (Example 4, patient, 12 mg once per day orally, 2 weeks on/1 week off, after 2 cycles) was “PR (partial remission, which means 30% or more decrease in the sum of the diameters of target lesions of tumors than the baseline level, which is maintained for at least 4 weeks)”, the “reduction of sum of the target lesions from the baseline” value (“reduction of sum of the target lesions” below) [1] was 7 mm and the “sum of the target lesions” value [1] was 12 mm. For the same compound, the “evaluation according to RECIST 1.1” value [2] was “PR (partial remission, which means 30% or more decrease in the sum of the diameters of target lesions of tumors than the baseline level, which is maintained for at least 4 weeks)”, the “reduction of sum of the target lesions” value [2] was 9 mm and the “sum of the target lesions” value [2] was 10 mm. The “reduction of sum of the target lesions” value [3] was 10 mm, the “sum of the target lesions” value [3] was 9 mm and the “adverse reaction during the administration” value (Example 4, patient, 12 mg once per day orally, relieved after medication and dosage reduction) was “Grade 3 hypertension”. For the same compound, the “evaluation according to RECIST 1.1” value (Example 5, patient, 12 mg once per day orally, 2 weeks on/1 week off, after 2 cycles) was “PR (partial remission, which means 30% or more decrease in the sum of the diameters of target lesions of tumors than the baseline level, which is maintained for at least 4 weeks)”, the “reduction of sum of the target lesions” value [4] was 17 mm and the “sum of the target lesions” value [4] was 30 mm. The “evaluation according to RECIST 1.1” value [5] was “PR (partial remission, which means 30% or more decrease in the sum of the diameters of target lesions of tumors than the baseline level, which is maintained for at least 4 weeks)”, the “reduction of sum of the target lesions” value [5] was 19 mm and the “sum of the target lesions” value [5] was 28 mm. For the same compound, the “evaluation according to RECIST 1.1” value [6] was “PR (partial remission, which means 30% or more decrease in the sum of the diameters of target lesions of tumors than the baseline level, which is maintained for at least 4 weeks)”, the “reduction of sum of the target lesions” value [6] was 23 mm and the “sum of the target lesions” value [6] was 24 mm. For the same compound, the “evaluation according to RECIST 1.1” value [7] was “PR (partial remission, which means 30% or more decrease in the sum of the diameters of target lesions of tumors than the baseline level, which is maintained for at least 4 weeks)”, the “reduction of sum of the target lesions” value [7] was 23 mm and the “sum of the target lesions” value [7] was 24 mm. The “evaluation according to RECIST 1.1” value [8] was “PR (partial remission, which means 30% or more decrease in the sum of the diameters of target lesions of tumors than the baseline level, which is maintained for at least 4 weeks)”, the “reduction of sum of the target lesions” value [8] was 24 mm and the “sum of the target lesions” value [8] was 23 mm. The “evaluation according to RECIST 1.1” value (Example 6, patient, 12 mg once per day orally, 2 weeks on/1 week off, after 2 cycles) was “SD”, the “reduction of sum of the target lesions” value [9] was 18 mm and the “sum of the target lesions” value [9] was 47 mm. The “evaluation according to RECIST 1.1” value [10] was “PR (partial remission, which means 30% or more decrease in the sum of the diameters of target lesions of tumors than the baseline level, which is maintained for at least 4 weeks)”, the “reduction of sum of the target lesions” value [10] was 23 mm and the “sum of the target lesions” value [10] was 42 mm. For the same compound, the “adverse reaction during the administration” value (Example 6, patient, alleviated by antihypertensive drugs and dose reduction to 10 mg and 8 mg) was “Grades 2 and 3 hypertension”.
